Experimental data as given in patent publication US20220144848A1, “SUBSTITUTED OXOPYRIDINE DERIVATIVES” (Bayer Aktiengesellschaft, priority 2018, published 2022).

Tests used:
[1] = molecular target: T1, human factor XIa (Homo sapiens, UniProt P03951); test: Measurement of FXIa inhibition (fluorogenic peptide substrate Boc-Glu(OBzl)-Ala-Arg-AMC); assay type: biochemical; conditions: factor XIa from Kordia, 15 min preincubation, 30 min at 22° C., fluorescence; some as mean values from multiple determinations
T1 construct: purchased Kordia
Experimental: (§1) The factor XIa inhibition of the substances according to the invention is determined using a biochemical test system which utilizes the reaction of a peptidic factor XIa substrate to determine the enzymatic activity of human factor XIa. Here, factor XIa cleaves from the peptidic factor XIa substrate the C-terminal aminomethylcoumarin (AMC), the fluorescence of which is measured. The determinations are carried out in microtitre plates.
Test substances are dissolved in dimethyl sulfoxide and serially diluted in dimethyl sulfoxide (3000 μM to 0.0078 μM; resulting final concentrations in the test: 50 μM to 0.00013 μM). In each case 1 μl of the diluted substance solutions is placed into the wells of white microtitre plates from Greiner (384 wells). 20 μl of assay buffer (50 mM of Tris/HCl pH 7.4; 100 mM of sodium chloride; 5 mM of calcium chloride; 0.1% of bovine serum albumin) and 20 μl of factor XIa from Kordia (0.45 nM in assay buffer) are then added successively. After 15 min of incubation, the enzyme reaction is started by addition of 20 μl of the factor XIa substrate Boc-Glu(OBzl)-Ala-Arg-AMC dissolved in assay buffer (10 μM in assay buffer) from Bachem, the mixture is incubated at room temperature (22° C.) for 30 min and fluorescence is then measured (excitation: 360 nm, emission: 460 nm). The measured emissions of the test batches with test substance are compared to those of control batches without test substance (only dimethyl sulfoxide instead of test substance in dimethyl sulfoxide), and IC50 values are calculated from the concentration/activity relationships.

[2] = molecular target: T2, human plasma kallikrein (Homo sapiens, UniProt P03952); test: Determination of the plasma kallikrein activity (fluorogenic peptide substrate H-Pro-Phe-Arg-AMC); assay type: biochemical; conditions: plasma kallikrein from Kordia, 15 min preincubation, 30 min at 22° C., fluorescence; some as mean values from multiple determinations
T2 construct: purchased Kordia
Experimental: as §1, with “To determine the plasma kallikrein” for “The factor XIa”, “invention,” for “invention is determined using”, “system is used” for “system”, “plasma kallikrein” for “factor XIa”, “plasma kallikrein.” for “factor XIa.”
Test substances are dissolved in dimethyl sulfoxide and serially diluted in dimethyl sulfoxide (3000 μM to 0.0078 μM; resulting final concentrations in the test: 50 μM to 0.00013 μM). In each case 1 μl of the diluted substance solutions is placed into the wells of white microtitre plates from Greiner (384 wells). 20 μl of assay buffer (50 mM Tris/HCl pH 7.4; 100 mM sodium chloride solution; 5 mM of calcium chloride solution; 0.1% of bovine serum albumin) and 20 μl of plasma kallikrein from Kordia (0.6 nM in assay buffer) are then added successively. After 15 min of incubation, the enzyme reaction is started by addition of 20 μl of the substrate H-Pro-Phe-Arg-AMC dissolved in assay buffer (10 μM in assay buffer) from Bachem, the mixture is incubated at room temperature (22° C.) for 30 min and fluorescence is then measured (excitation: 360 nm, emission: 460 nm). The measured emissions of the test batches with test substance are compared to those of control batches without test substance (only dimethyl sulfoxide instead of test substance in dimethyl sulfoxide), and IC50 values are calculated from the concentration/activity relationships. Activity data from this test are listed in Table B below (some as mean values from multiple independent individual determinations): […]

T2 sequence (P03952 391-638 limits assumed): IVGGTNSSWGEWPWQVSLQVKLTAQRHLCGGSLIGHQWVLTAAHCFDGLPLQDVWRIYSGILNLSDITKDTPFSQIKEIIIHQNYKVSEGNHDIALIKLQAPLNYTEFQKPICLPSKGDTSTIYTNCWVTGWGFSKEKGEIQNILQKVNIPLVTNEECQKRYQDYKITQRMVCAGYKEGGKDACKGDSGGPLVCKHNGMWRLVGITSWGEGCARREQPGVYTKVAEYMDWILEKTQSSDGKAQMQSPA
T2 sequence (P03952 20-390 partner limits assumed): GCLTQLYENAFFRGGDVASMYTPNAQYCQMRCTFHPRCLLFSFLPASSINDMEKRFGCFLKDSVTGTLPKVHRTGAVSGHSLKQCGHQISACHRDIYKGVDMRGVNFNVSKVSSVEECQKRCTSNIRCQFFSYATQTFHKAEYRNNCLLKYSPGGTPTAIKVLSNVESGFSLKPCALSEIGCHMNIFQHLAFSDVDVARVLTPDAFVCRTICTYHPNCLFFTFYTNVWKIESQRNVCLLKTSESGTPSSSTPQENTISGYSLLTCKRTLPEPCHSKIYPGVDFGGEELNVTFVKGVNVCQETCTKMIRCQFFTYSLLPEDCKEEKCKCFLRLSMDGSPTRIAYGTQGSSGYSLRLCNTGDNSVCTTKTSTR
T1 sequence (P03951 388-625 limits assumed): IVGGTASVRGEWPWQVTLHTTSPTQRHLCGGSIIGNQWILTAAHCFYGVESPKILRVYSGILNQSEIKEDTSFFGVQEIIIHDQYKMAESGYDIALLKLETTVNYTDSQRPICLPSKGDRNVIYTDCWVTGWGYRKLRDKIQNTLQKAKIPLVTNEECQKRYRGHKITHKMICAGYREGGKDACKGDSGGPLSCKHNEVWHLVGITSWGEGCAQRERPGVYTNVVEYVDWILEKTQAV
T1 sequence (P03951 19-387 partner limits assumed): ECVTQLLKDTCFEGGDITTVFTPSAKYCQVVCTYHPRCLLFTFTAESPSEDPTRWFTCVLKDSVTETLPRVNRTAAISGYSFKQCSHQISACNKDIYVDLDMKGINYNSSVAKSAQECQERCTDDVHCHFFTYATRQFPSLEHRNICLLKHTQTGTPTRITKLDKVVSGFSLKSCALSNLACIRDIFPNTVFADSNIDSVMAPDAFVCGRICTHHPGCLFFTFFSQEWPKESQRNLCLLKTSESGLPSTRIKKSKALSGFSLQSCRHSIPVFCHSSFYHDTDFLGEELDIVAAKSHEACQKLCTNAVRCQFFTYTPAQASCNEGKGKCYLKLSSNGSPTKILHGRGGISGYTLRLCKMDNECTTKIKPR

Row | SMILES | IC50 [1] [nM] | IC50 [2] [nM]
1 | C[C@@H]1Cc2ccc(Cl)cc2-c2cc(=O)n([C@@H](CCOC(C)(C)C)C(=O)Nc3ccc(C(N)=O)cc3)cc2CO1 (single isomer, unassigned) [Example 24] | 5.4 | 110
2 | C[C@@H]1Cc2ccc(Cl)cc2-c2cc(=O)n([C@@H](CCOC(C)(C)C)C(=O)Nc3ccn4ncnc4c3)cc2CO1 (single isomer, unassigned) [Example 26] | 28 | 170
3 | C[C@@H]1Cc2ccc(Cl)cc2-c2cc(=O)n([C@@H](CCOC3CC3)C(=O)Nc3ccc(C(N)=O)cc3)cc2CO1 (single isomer, unassigned) [Example 27] | 6.6 | 71
4 | CC[C@@H](C(=O)Nc1ccc(C(N)=O)cc1)n1cc2c(cc1=O)-c1c(ccc(Cl)c1F)C[C@@H](C)OC2 (single isomer, unassigned) [Example 28] | 12 | 190
5 | CC[C@@H]1Cc2ccc(Cl)cc2-c2cc(=O)n([C@@H](C[C@@H]3CCCCO3)C(=O)Nc3ccc(C(N)=O)c(F)c3)cc2CO1 (single isomer, unassigned) [Example 31] | 13 | 980
6 | NC(=O)c1ccc(NC(=O)[C@H](C[C@@H]2CCCCO2)n2cc3c(cc2=O)-c2cc(Cl)ccc2C[C@@H](CO)OC3)cc1F (single isomer, unassigned) [Example 33] | 9.1 | 480
7 | NC(=O)c1ccc(NC(=O)[C@H](C[C@@H]2COCCO2)n2cc3c(cc2=O)-c2cc(Cl)ccc2C[C@@H](CO)OC3)cc1 (single isomer, unassigned) [Example 37] | 6 | 320
8 | CC(C)[C@@H]1Cc2ccc(Cl)cc2-c2cc(=O)n([C@@H](C[C@@H]3COCCO3)C(=O)Nc3ccc(C(N)=O)c(F)c3)cc2CO1 (single isomer, unassigned) [Example 41] | 10 | 1600
9 | CC(C)[C@@H]1Cc2ccc(Cl)cc2-c2cc(=O)n([C@@H](C[C@@H]3COCCO3)C(=O)Nc3ccc4nn(C)nc4c3)cc2CO1 (single isomer, unassigned) [Example 45] | 17 | 660
10 | CC[C@@H](C(=O)Nc1ccc(C(N)=O)c(F)c1)n1cc2c(cc1=O)-c1cc(Cl)ccc1C[C@@H](C(F)F)OC2 (single isomer, unassigned) [Example 47] | 56 | 1500
11 | NC(=O)c1ccc(NC(=O)[C@H](C[C@@H]2CCCCO2)n2cc3c(cc2=O)-c2cc(Cl)ccc2C[C@@H](C(F)F)OC3)cc1F (single isomer, unassigned) [Example 49] | 4.7 | 370
12 | NC(=O)c1ccc(NC(=O)[C@H](C[C@@H]2CCCCO2)n2cc3c(cc2=O)-c2cc(Cl)ccc2C[C@@H](C(F)(F)F)OC3)cc1F (single isomer, unassigned) [Example 51] | 4.2 | 360
13 | NC(=O)c1ccc(NC(=O)[C@H](C[C@@H]2COCCO2)n2cc3c(cc2=O)-c2cc(Cl)ccc2C[C@@H](C(F)(F)F)OC3)cc1F (single isomer, unassigned) [Example 57] | 3.8 | 310
14 | COCC[C@@H](C(=O)Nc1ccc(C(N)=O)c(F)c1)n1cc2c(cc1=O)-c1cc(Cl)ccc1C[C@@H](C(F)(F)F)OC2 (single isomer, unassigned) [Example 61] | 10 | 340
15 | COCC[C@@H](C(=O)Nc1ccn2ncnc2c1)n1cc2c(cc1=O)-c1cc(Cl)ccc1C[C@@H](C(F)(F)F)OC2 (single isomer, unassigned) [Example 65] | 6.8 | 120
16 | CO[C@@H](C)C[C@@H](C(=O)Nc1ccc(C(N)=O)cc1)n1cc2c(cc1=O)-c1cc(Cl)ccc1C[C@@H](C(F)(F)F)OC2 (single isomer, unassigned) [Example 67] | 3.5 | 220
17 | CC[C@@H](C(=O)Nc1ccc(C(N)=O)cc1)n1cc2c(cc1=O)-c1c(ccc(Cl)c1F)C[C@@H](C(F)(F)F)OC2 (single isomer, unassigned) [Example 68] | 6.9 | 170
18 | CC[C@@H](C(=O)Nc1ccc(C(N)=O)cc1)n1cc2c(cc1=O)-c1c(ccc(Cl)c1Cl)C[C@@H](C(F)(F)F)OC2 (single isomer, unassigned) [Example 70] | 64 | 580
19 | CC[C@@H](C(=O)Nc1ccc(C(N)=O)c(F)c1)n1cc2c(cc1=O)-c1cc(Cl)ccc1C[C@@H](C)O[C@H]2C (single isomer, unassigned) [Example 71] | 3.5 | 225
20 | C[C@@H]1Cc2ccc(Cl)cc2-c2cc(=O)n([C@@H](C[C@@H]3CCCCO3)C(=O)Nc3ccc(C(N)=O)c(F)c3)cc2[C@H](C)O1 (single isomer, unassigned) [Example 72] | 2.5 | 65
21 | CC[C@@H](C(=O)Nc1ccc(C(N)=O)cc1)n1cc2c(cc1=O)-c1c(ccc(Cl)c1F)C[C@@H](C)O[C@H]2C (single isomer, unassigned) [Example 75] | 5.9 | 40

Further lines, results first:

Row | IC50 [1] [nM] | IC50 [2] [nM] | SMILES
22 | 1.6 | 47 | CO[C@@H](C)C[C@@H](C(=O)Nc1ccc(C(N)=O)cc1)n1cc2c(cc1=O)-c1c(ccc(Cl)c1F)C[C@@H](C)OC2 (single isomer, unassigned) [Example 29]
23 | 2.1 | 170 | NC(=O)c1ccc(NC(=O)[C@H](C[C@@H]2CCCCO2)n2cc3c(cc2=O)-c2cc(Cl)ccc2C[C@@H](CO)OC3)cc1 (single isomer, unassigned) [Example 35]
24 | 1.7 | 380 | CC(C)[C@@H]1Cc2ccc(Cl)cc2-c2cc(=O)n([C@@H](C[C@@H]3COCCO3)C(=O)Nc3ccc(C(N)=O)cc3)cc2CO1 (single isomer, unassigned) [Example 43]
25 | 2.3 | 300 | NC(=O)c1ccc(NC(=O)[C@H](C[C@@H]2CCCCO2)n2cc3c(cc2=O)-c2cc(Cl)ccc2C[C@@H](C(F)(F)F)OC3)cn1 (single isomer, unassigned) [Example 53]
26 | 0.5 | 91 | NC(=O)c1ccc(NC(=O)[C@H](C[C@@H]2CCCCO2)n2cc3c(cc2=O)-c2cc(Cl)ccc2C[C@@H](C(F)(F)F)OC3)cc1 (single isomer, unassigned) [Example 55]
27 | 0.9 | 89 | NC(=O)c1ccc(NC(=O)[C@H](C[C@@H]2COCCO2)n2cc3c(cc2=O)-c2cc(Cl)ccc2C[C@@H](C(F)(F)F)OC3)cc1 (single isomer, unassigned) [Example 59]
28 | 2.5 | 110 | COCC[C@@H](C(=O)Nc1ccc(C(N)=O)cc1)n1cc2c(cc1=O)-c1cc(Cl)ccc1C[C@@H](C(F)(F)F)OC2 (single isomer, unassigned) [Example 63]
29 | 1.1 | 55 | NC(=O)c1ccc(NC(=O)[C@H](C[C@@H]2CCCCO2)n2cc3c(cc2=O)-c2c(ccc(Cl)c2F)C[C@@H](C(F)(F)F)OC3)cc1 (single isomer, unassigned) [Example 69]
30 | 0.8 | 27 | C[C@@H]1Cc2ccc(Cl)cc2-c2cc(=O)n([C@@H](C[C@@H]3CCCCO3)C(=O)Nc3ccc(C(N)=O)cc3)cc2[C@H](C)O1 (single isomer, unassigned) [Example 73]
31 | 1.4 | 30 | CO[C@@H](C)C[C@@H](C(=O)Nc1ccc(C(N)=O)cc1)n1cc2c(cc1=O)-c1cc(Cl)ccc1C[C@@H](C)O[C@H]2C (single isomer, unassigned) [Example 74]
